Reference: publication PMC5603512, “Discovery, Semisynthesis, Antiparasitic and Cytotoxic Evaluation of 14-Membered Resorcylic Acid Lactones and Their Derivatives” (Scientific Reports, 2017)
Where two headings read alike, the source gives them in different places.

Key:
[1] = Cytotoxicity SRB assay, HeLa; conditions: human
Method: (§1) All of the compounds were also evaluated for their cytotoxic properties against six human cancer cell lines (lung carcinoma epithelian (A549), colon carcinoma (HCT-116), pancreatic carcinoma (BXPC-3), breast cancer (MCF-7), cervical epithelium (HeLa), and erythroleukemic (K562)) and a human umbilical vein endothelial cell (HUVEC) line (Table 2).
(§2) The cytotoxicity against HCT-116, BXPC-3, HeLa, MCF-7, A-549, and HUVEC cell lines was evaluated using the SRB method. The cytotoxicity against K562 and Vero cell lines was evaluated using the MTT method. Adriamycin was used as a positive control. All cells were cultivated in T-75 flasks containing 10% Fetal Bovine Serum (FBS), Dulbeco’s Modified Eagle Medium (DMEM) with 2 mM L-glutamine, and 1% penicillin-streptomycin at 37 °C in a humidified atmosphere with 5% CO2. For SRB assay, cells in their log phase of growth were seeded into 96 well micro plates (4 × 10^4 cells per well) and followed by treating with test samples at 10 μM or DMSO. After incubation at 37 °C for 72 h, the cells were fixed with the cold 20% (w/v) TCA for 2 h and stained with Sulforhodamine B (SRB) dye for 0.5 h. The protein-bound dye is dissolved in Tris base solution for OD determination at 540 nm on an ELISA Plate Reader. For MTT assay, cells (5 × 10^3 cells per well) were plated in 96 well micro plates. After cell attachment overnight, new medium containing test compounds or DMSO was added. The plate was incubated for 48 h at 37 °C and incubated with 3-(4,5-dimethylthiazol-2-yl)-2,5-diphenyltetrazolium bromide (MTT) for additional 2–4 hours. The assay plate was then read at 490 nm on an ELISA Plate Reader. The data were obtained from experiments carried out in triplicate.

[2] = Cytotoxicity MTT assay, K562; conditions: human
Method: as §1, §2

Leishmania donovani = test: Antileishmanial assay (PicoGreen); assay type: cell-based; conditions: read-out: Leishmania donovani IC50
Method: The anti-leishmania activity was evaluated following the protocol described by Calderon et al.[39], using the fluorescent DNA intercalator PicoGreen (Invitrogen, USA). The species responsible for visceral leishmaniasis, L. donovani, was used for the assays.

[3] = Cytotoxicity SRB assay, A-549; conditions: human
Method: as §1, §2

Trypanosoma cruzi = test: Antitrypanosomal assay (beta-galactosidase reporter, intracellular amastigotes in Vero cells); assay type: cell-based; conditions: Tulahuen clone C4, intracellular amastigotes in Vero cells, 120 h; further: key: I: Inactive
Method: Briefly, the expression of the reporter gene for beta-galactosidase (β-Gal) in the Tulahuen clone C4 of T. cruzi is assessed by colorimetry at 570 nm, which correlates with the parasite growth. Assays were performed on the intracellular amastigote form of the parasite infecting African green monkey kidney (Vero) cells, incubated for 120 h at 37 °C with 5% CO2.

[4] = Cytotoxicity SRB assay, BXPC-3; conditions: human
Method: as §1, §2

[5] = Cytotoxicity SRB assay, HCT-116; conditions: human
Method: as §1, §2

Plasmodium falciparum = test: Antiplasmodial assay (PicoGreen growth inhibition in infected human erythrocytes); assay type: cell-based; conditions: read-out: Plasmodium falciparum IC50
Method: Activity against the causative agent of malaria was performed by culturing human erythrocytes and infecting them with P. falciparum, as described by Trager and Jensen[36]. Briefly, the W2 (Chloroquine resistant) and 3D7 (Chloroquine sensitive) strains of P. falciparum were cultured in RPMI 1640 medium (Sigma-Aldrich, USA) supplemented with 10% human serum (from O+ blood) at a hematocrit of 2% erythrocytes (O+) at 37 °C in a gas mixture of 5% CO2, 5% O2, and 90% N2. Parasites were synchronized by a temperature cycling technique as described by Almanza et al.[37]

[6] = Cytotoxicity SRB assay, MCF-7; conditions: human
Method: as §1, §2

[7] = Toxicity against Vero cells (MTT); assay type: cell-based, African green monkey; conditions: African green monkey, MTT, 48 h
Method: It should be emphasized that toxicity is a major concern of drug discovery and development. The above active compounds were evaluated for in vitro toxicity against a mammalian kidney cell line (Vero). The selectivity index (SI) was used as the evaluation parameter of drug potential of the test samples by comparing the toxicity on the Vero cell line (CC50) and the selective inhibitory effect on P. falciparum, L. donovani or T. cruzi (IC50) calculated here as CC50/IC50.
Adriamycin was used as a positive control.

[8] = Cytotoxicity SRB assay, HUVEC; conditions: human
Method: as §1, §2

[9] = Vero cells (mammalian kidney cell line)
[10] = BXPC-3 pancreatic carcinoma cells
[11] = Erythrocyte, in vitro, W2 and 3D7 strains cultured, strain of the values not stated

Row | Structure (SMILES) | IC50 at 72 h [1] | IC50 at 48 h [2] | IC50 (Leishmania donovani) | IC50 at 72 h [3] | Trypanosoma cruzi IC50 (Trypanosoma cruzi) | IC50 at 72 h [4] | IC50 at 72 h [5] | IC50 (Plasmodium falciparum; 3D7, Erythrocyte) | IC50 at 72 h [6] | IC50 at 72 h ([1]; HeLa cervical epithelium cells) | IC50 at 48 h ([2]; K562 erythroleukemic cells) | IC50 (Leishmania donovani; in vitro) | IC50 at 72 h ([3]; A-549 lung carcinoma cells) | IC50 at 72 h [4, 10] | IC50 at 72 h ([5]; HCT-116 colon carcinoma cells) | IC50 (Plasmodium falciparum; [11]) | IC50 at 72 h ([6]; MCF-7 breast cancer cells) | further results
1 | COc1cc(O)c2c(c1Cl)/C=C/C[C@H](O)[C@H](O)[C@@H](O)CCC[C@H](C)OC2=O [Compound 2, cochliomycin C] | > 10 µM | > 10 µM | > 15.7 µM | > 10 µM | I | > 10 µM | > 10 µM | > 30.7 µM | > 10 µM | – | – | – | – | – | – | – | – | –
2 | COc1cc(OC(C)=O)c2c(c1Cl)/C=C/C[C@H](OC(C)=O)[C@H](OC(C)=O)[C@@H](OC(C)=O)CCC[C@H](C)OC2=O [Compound 19] | > 10 µM | > 10 µM | > 15.7 µM | > 10 µM | I | > 10 µM | > 10 µM | > 30.7 µM | > 10 µM | – | – | – | – | – | – | – | – | –
3 | COc1cc(O)c2c(c1Cl)/C=C/C[C@H](O)[C@@H]1OC(C)(C)O[C@H]1/C=C/C[C@H](C)OC2=O [Compound 17] | – | – | – | – | I | – | – | – | – | > 10 µM | > 10 µM | > 15.7 µM | > 10 µM | > 10 µM | > 10 µM | > 30.7 µM | > 10 µM | CC50 at 48 h [7, 9]: 143 µM
4 | COc1cc(O)c2c(c1Cl)/C=C/C[C@H](O)[C@@H]1OC(C)(C)O[C@H]1CCC[C@H](C)OC2=O [Compound 18] | > 10 µM | > 10 µM | > 15.7 µM | > 10 µM | I | > 10 µM | > 10 µM | > 30.7 µM | > 10 µM | – | – | – | – | – | – | – | – | CC50 at 48 h [7]: 102 µM
5 | COc1cc2c(c(OC(C)=O)c1)C(=O)O[C@@H](C)C/C=C/C(=O)[C@@H](OC(C)=O)[C@H](OC(C)=O)C/C=C/2 [Compound 24] | – | – | – | – | – | – | – | – | – | > 10 µM | – | 12.1 µM | > 10 µM | – | > 10 µM | > 30.7 µM | – | CC50 at 48 h [7, 9]: 3.2 µM; IC50 at 72 h ([8]; HUVEC (umbilical vein endothelial cells)): > 10 µM
6 | COc1cccc2c1C(=O)c1c(O)c3c(c(O)c1C2=O)C[C@@](O)(C(=O)CO)C[C@@H]3O[C@H]1C[C@H](N)[C@H](O)[C@H](C)O1 [Adriamycin, reference compound] | – | – | – | – | – | – | – | – | – | 0.6 µM | 0.25 µM | – | 0.16 µM | 0.033 µM | 0.21 µM | – | 0.86 µM | –
7 | COc1cc(O)c2c(c1)/C=C/C[C@H](O)[C@@H](O)C(=O)/C=C/C[C@H](C)OC2=O [Compound 4] | – | – | – | – | I | – | – | – | – | > 10 µM | > 10 µM | 15.2 µM | > 10 µM | > 10 µM | > 10 µM | > 30.7 µM | > 10 µM | –
8 | COc1cc(O)c2c(c1)/C=C/C[C@H](O)[C@H](O)[C@@H](O)/C=C/C[C@H](C)OC2=O [Compound 8, zeaenol] | > 10 µM | > 10 µM | > 15.7 µM | > 10 µM | I | > 10 µM | > 10 µM | > 30.7 µM | > 10 µM | – | – | – | – | – | – | – | – | CC50 at 48 h [7]: 227 µM; IC50 at 72 h [8]: > 10 µM
9 | COc1cc(O)c2c(c1)/C=C/C[C@@H](O)[C@@H](O)C(=O)/C=C/C[C@H](C)OC2=O [Compound 5] | – | – | – | – | I | – | – | – | – | > 10 µM | > 10 µM | > 15.7 µM | > 10 µM | > 10 µM | > 10 µM | > 30.7 µM | > 10 µM | –
